Values quoted from earlier work in US20210360928A1, “ANTIMICROBIAL/ANTIVIRAL NONWOVEN AND APPLICATIONS OF THE SAME” (priority 2020, published 2021).

[Cl][Ag] [silver chloride]
solubility in water: unusually insoluble in water
